Columns and labels:
[1] = test system: barrier function of the skin; experiment: Trans-epidermal water loss (TEWL, Tewameter) on volar forearms, 7 days of treatment then SDS irritation; assay type: in vivo, human; design: unit not given here
Description: Measurements of trans-epidermal water loss (TEWL) were performed with the Tewameter (Courage & Khazaka, Cologne, Germany). The Tewameter is a device for measurement of water evaporation on skin surfaces based on the diffusion principle discovered by A. Fick in 1885.
(§1) Two panels of each five female volunteers at the age of 19-55 years with healthy skin were included in the test.
(§2) Measurements were carried out at a temperature of 22±1°C and a relative humidity of 60±10%. Subjects were accustomed to ambient conditions for 20 min prior to any measurement. The test was carried out on the volar forearms. Initially untreated skin was measured in all six areas to find baseline values. Then the five test products were applied, one area remained untreated. The dose of applicaton was about 2 mg/cm^2. In the following 7 days a home application in the morning and evening took place. Measurements were evaluated during the treatment period on day 7 two hours after the last daily application. Then the test areas on both forearms were treated with a 5% aqueous solution of sodium lauryl sulphate (SDS) and an occlusive dressing applied to induce skin irritation. The dressing was removed two hours later, and the regions were gently washed with water and air-dried. After one hour the measurements were done when the level had stabilised.
(§3) Use of other cosmetic products was restricted on the test areas throughout the whole study.
(§4) • before start treatment; • two hours after last application on day 7; • 1 hour after irritation with SDS (2 hours under occlusion).

healthy human skin [2] = experiment: Skin roughness by profilometry (mean depth of roughness Rz) on volar forearms, 7 days of treatment then SDS irritation; assay type: in vivo; design: unit not given here
Description: Roughness was measured by profilometry using a stylus instrument (OFR 01; Romano GmbH, Cologne, Germany). Silicon impressions from the test areas of the volar forearm were prepared. The dental mass Silasoft N® (Detax-K. Huber K.G., Karlsruhe, Germany) was used for making the impressions. The parameter mean depth of roughness Rz (DIN 4768/1) was measured. By convention the scan length was divided into […] equal-sized areas. In each area the distance from the highest peak to the lowest trough was established. The average of these five distances is Rz.
as §1, §2, §3, §4

healthy human skin [3] = experiment: Desquamation: dansyl chloride fluorescence extraction score on volar forearms, 7 days of treatment then SDS irritation; assay type: in vivo
Description: The stratum corneum was stained with dansyl chloride. Dansyl chloride was mixed to homogeneity at 5% (w/w) in petrolatum and applied to the volar forearms of the volunteers under semi-occlusive tape, one day before the beginning of the study. After 24 h the patches were removed and any excess material wiped off under running tape water. Fluorescence was assessed under UV illumination for intensity and homogeneity by a trained evaluator using the following scale for fluorescence extraction: • 0 : no fluorenscence extraction • 1 : slight fluorescence extraction • 2 : moderate fluorescence extraction • 3 : strong fluorescence extraction • 4 : complete fluorescence extraction. Half scores were used when needed.
as §1, §2, §3, §4

[4] = test system: barrier function of the skin; experiment: Skin colour by chromametry (Minolta Chromameter CR 300) on volar forearms, 7 days of treatment then SDS irritation; assay type: in vivo, human; design: key: CIE a* value (green-red axis); higher = redder skin
Description: Skin colour was measured by chromametry with a Minolta Chromameter CR 300 (Minolta, Ahrensburg, Germany) in compliance with the Commission International de l'eclairage (CIE) system, according to which the registration of colour is adjusted to the non-linear colour sensitivity of human eye. A colour is expressed in a three-dimensional coordinate system with green-red (a*), yellow-blue (b*) and L* axes (brightness). The skin surface is illuminated by a Xenon flash light and remitted light registered and analysed by a photoreceiver. Chromametry is sensitive and accurate for the characterization of redness of skin irritation. In inflamed skin a positive change on the a* axis is observed, towards red. Each value was the average of three recordings.
as §1, §2, §3, §4

[5] = 0.05% in oil-in-water emulsion, 7 days pretreatment, after SDS (5% aqueous, 2 h occlusion, measured 1 h later)
[6] = 0.05% in oil-in-water emulsion, about 2 mg/cm^2 morning and evening, after 7 days
[7] = 0.05% in oil-in-water emulsion, day 0 (baseline before start of treatment)
[8] = 0.2% in oil-in-water emulsion, 7 days pretreatment, after SDS (5% aqueous, 2 h occlusion, measured 1 h later)
[9] = 0.2% in oil-in-water emulsion, about 2 mg/cm^2 morning and evening, after 7 days
[10] = 0.2% in oil-in-water emulsion, day 0 (baseline before start of treatment)
[11] = 0.5% in oil-in-water emulsion, 7 days pretreatment, after SDS (5% aqueous, 2 h occlusion, measured 1 h later)
[12] = 0.5% in oil-in-water emulsion, about 2 mg/cm^2 morning and evening, after 7 days
[13] = 0.5% in oil-in-water emulsion, day 0 (baseline before start of treatment)
[14] = 0.05% in oil-in-water emulsion, 7 days pretreatment, after SDS (5% aqueous, 2 h occlusion), scale 0 to 4
[15] = 0.05% in oil-in-water emulsion, morning and evening, after 7 days, scale 0 (no) to 4 (complete fluorescence extraction)
[16] = 0.05% in oil-in-water emulsion, day 0 (baseline), scale 0 (no) to 4 (complete fluorescence extraction)
[17] = 0.2% in oil-in-water emulsion, 7 days pretreatment, after SDS (5% aqueous, 2 h occlusion), scale 0 to 4
[18] = 0.2% in oil-in-water emulsion, day 0 (baseline), scale 0 (no) to 4 (complete fluorescence extraction)
[19] = 0.5% in oil-in-water emulsion, 7 days pretreatment, after SDS (5% aqueous, 2 h occlusion), scale 0 to 4
[20] = 0.5% in oil-in-water emulsion, day 0 (baseline), scale 0 (no) to 4 (complete fluorescence extraction)

Compound	TEWL [1, 5]	TEWL [1, 6]	TEWL [1, 7]	TEWL [1, 8]	TEWL [1, 9]	TEWL [1, 10]	TEWL [1, 11]	TEWL [1, 12]	TEWL [1, 13]	Skin roughness (healthy human skin [2]; [5])	Skin roughness (healthy human skin [2]; [6])	Skin roughness (healthy human skin [2]; [7])	Skin roughness (healthy human skin [2]; [8])	Skin roughness (healthy human skin [2]; [9])	Skin roughness (healthy human skin [2]; [10])	Skin roughness (healthy human skin [2]; [11])	Skin roughness (healthy human skin [2]; [12])	Skin roughness (healthy human skin [2]; [13])	Desquamation (fluorescence extraction) (healthy human skin [3]; [14])	Desquamation (fluorescence extraction) (healthy human skin [3]; [15])	further results
CCCCCCCCCCCCCC[C@@H](O)[C@@H](O)[C@H](CO)NC(=O)[C@H](C)O [Cer6/OH-C3, N-[(S)-2-hydroxypropanoyl]-phytosphingosine]	16.6 ± 5.2	8.2 ± 3.5	5 ± 1.1	13.5 ± 6	7.2 ± 1.6	6.1 ± 1.5	11.6 ± 3.3	8 ± 1.9	6 ± 1.2	96.9 ± 8.1	109.1 ± 16.4	131.2 ± 15.5	92.9 ± 9.7	91.9 ± 9.9	104.7 ± 9	116.5 ± 14.8	112.9 ± 15.2	131.1 ± 15.2	0,8 ± 0,4	0,2 ± 0,4	Desquamation (fluorescence extraction) (healthy human skin [3]; [16]): 0; Desquamation (fluorescence extraction) (healthy human skin [3]; [17]): 1 ± 0; Desquamation (fluorescence extraction) (healthy human skin [3]; 0.2% in oil-in-water emulsion, morning and evening, after 7 days, scale 0 (no) to 4 (complete fluorescence extraction)): 0,2 ± 0,4; Desquamation (fluorescence extraction) (healthy human skin [3]; [18]): 0; Desquamation (fluorescence extraction) (healthy human skin [3]; [19]): 1 ± 0; Desquamation (fluorescence extraction) (healthy human skin [3]; [20]): 0; skin colour [4, 5]: 13.1 ± 1.8; skin colour [4, 6]: 7.6 ± 0.8; skin colour [4, 7]: 6.7 ± 0.4; skin colour [4, 8]: 11.4 ± 0.6; skin colour [4, 9]: 8.5 ± 0.9; skin colour [4, 10]: 7.8 ± 0.9; skin colour [4, 11]: 9.5 ± 1.3; skin colour [4, 12]: 8.7 ± 0.7; skin colour [4, 13]: 8.2 ± 0.5
CCCCCCCCCCCCCC[C@@H](O)[C@@H](O)[C@H](CO)NC(=O)C(O)CCCCCC (stereo partly shown) [Cer6/OH-C8, N-(2-hydroxyoctanoyl)-phytosphingosine]	14.7 ± 4.2	5.7 ± 1.9	5.7 ± 1.3	10.12 ± 1.9	5.5 ± 1.6	5.4 ± 0.7	13 ± 4.4	7.9 ± 2.7	6.5 ± 2.2	121.8 ± 11.6	119.1 ± 8.8	133.6 ± 12.5	118.7 ± 7.6	118.5 ± 8.2	147.1 ± 15.5	82.2 ± 7.1	98 ± 6.9	111.2 ± 6	0.8 ± 0.4	0,4 ± 0,5	Desquamation (fluorescence extraction) (healthy human skin [3]; [16]): 0; Desquamation (fluorescence extraction) (healthy human skin [3]; [17]): 0,8 ± 0,4; Desquamation (fluorescence extraction) (healthy human skin [3]; [18]): 0; Desquamation (fluorescence extraction) (healthy human skin [3]; [19]): 1 ± 0; Desquamation (fluorescence extraction) (healthy human skin [3]; 0.5% in oil-in-water emulsion, morning and evening, after 7 days, scale 0 (no) to 4 (complete fluorescence extraction)): 0,4 ± 0,5; Desquamation (fluorescence extraction) (healthy human skin [3]; [20]): 0; skin colour [4, 5]: 9.2 ± 0.8; skin colour [4, 6]: 6.2 ± 1.2; skin colour [4, 7]: 7 ± 1.2; skin colour [4, 8]: 8.4 ± 0.5; skin colour [4, 9]: 6.3 ± 0.7; skin colour [4, 10]: 6.8 ± 0.5; skin colour [4, 11]: 10.2 ± 0.9; skin colour [4, 12]: 8.3 ± 1.1; skin colour [4, 13]: 6.5 ± 0.6

— patent EP0706509B1, “SHORT CHAIN 2-HYDROXYCARBOXYLIC ACID-BASED DERIVATIVES OF CERAMIDES” (DSM N.V., priority 1994, dated 1995)
